Results from US10961270B2, “Compounds and compositions for treating conditions associated with sting activity” (Innate Tumor Immunity, Inc., priority 2016, dated 2021).
Like-named read-outs stand apart in the source and are kept apart here.

What was measured:
[1] = test system: STING pathway (NFκB pathway reporter, THP1-Dual cells); assay: STING pathway activation, NFκB pathway secreted embryonic alkaline phosphatase (SEAP) reporter in THP1-Dual cells; format: cell-based; details: QUANTI-Blue, 620 nm, 24-hour and 48-hour plates prepared, duration not given
Experimental: (§1) STING pathway activation by the compounds described herein was measured using THP1-Dual™ cells. These cells are THP1 monocytes that have been modified to be reporters for the NF[…]B pathway (by inducing secreted embryonic alkaline phosphatase (SEAP) expression) and the IRF pathway (by inducing secreted luciferase (LUCIA)). Both of these pathways are activated by STING agonists in these cells.
(§2) THP1 Dual™ cells (obtained from Invivogen) are maintained in a cell growth medium that includes Roswell Park Memorial Institute medium (RPMI), 10% fetal calf serum (FCS), 100 U/ml Pen/Strep, 2 mM L-glut, 10 mM Hepes, and 1 mM sodium pyruvate. Prior to the assay, the cells were transferred to an assay medium that includes is RPMI, 5% FCS, 100 U/ml Pen/Strep, 2 mM L-glut, 10 mM Hepes, and 1 mM sodium pyruvate. Cells were then counted and evaluated for viability by trypan blue exclusion assay.
(§3) Compounds were dissolved in water or DMSO depending, for example, on their solubility in water or DMSO. The compounds are then diluted in the assay medium and plated into wells of a 384-well tissue culture plate in […] portions. Cells are then added in […] assay medium to result in a final cell concentration of 80,000 cells per well.
(§4) For each set of compounds, two plates were prepared: one plate that was subjected to a 24-hour assay duration, and one plate that was subjected to a 48-hour assay duration. The plates are incubated during their respective assay durations at 37° C., with 5% CO2.
(§5) To carry out the secreted embryonic alkaline phosphatase reporter, 10 µL of cell supernatant was mixed with 90 μL of QUANTI-Blue in a flat-bottom 384 well plate. The plates were incubated at 37′C for 1-2 hours. SEAP activity was measured using a spectrophotometer set at 620 nm. In the secreted luciferase (i.e., Lucia) assay, 10 µL of THP1-Blue™ WASG cell supernatant was plated, then 50 μL Quanti LUC Solution was added. Luminescence of the wells was then measured.

[2] = test system: STING pathway (IRF pathway reporter, THP1-Dual cells); assay: STING pathway activation, IRF pathway secreted luciferase (Lucia) reporter in THP1-Dual cells; format: cell-based; details: Quanti LUC luminescence, 24-hour and 48-hour plates prepared, duration not given, read-out: IRF3 (EC50 μM)
Experimental: as §1, §2, §3, §4, §5

Row | EC50 [2] [µM] | EC50 ([2]; Homo sapiens, THP1-Dual) [µM] | Molecule | EC50 [1] [µM] | EC50 ([1]; Homo sapiens, THP1-Dual) [µM] | also measured
1 | 1 to 10 |  | Nc1ncnc2c1ncn2[C@@H]1O[C@@H]2COP(=O)(S)N[C@H]3[C@@H](O)[C@H](n4cnc5c(N)ncnc54)O[C@@H]3COP(=O)(S)N[C@H]2[C@H]1O (single isomer, unassigned) [Compound 74-0A1] | 1 to 10 |  | 
2 | 1 to 10 |  | Nc1ncnc2c1ncn2[C@@H]1O[C@@H]2COP(=O)(S)N[C@H]3[C@@H](O)[C@H](n4cnc5c(N)ncnc54)O[C@@H]3COP(=O)(S)N[C@H]2[C@H]1O (single isomer, unassigned) [Compound 74-0A2] | < 1 |  | 
3 |  | 10 to 49 | Nc1ncnc2c1ncn2[C@@H]1O[C@@H]2COP(=O)(S)N[C@H]3[C@@H](O)[C@H](n4cnc5c(N)ncnc54)O[C@@H]3COP(=O)(O)N[C@H]2[C@H]1O (single isomer, unassigned) [Compound 74-0B0] |  | 10 to 49 | 
4 | 10 to 49 |  | Nc1ncnc2c1ncn2[C@@H]1O[C@@H]2COP(=O)(S)N[C@H]3[C@@H](O)[C@H](n4cnc5c(N)ncnc54)O[C@@H]3COP(=O)(S)N[C@H]2[C@H]1O (single isomer, unassigned) [Compound 74-0B1] | 50 to 100 |  | 
5 |  | 10 to 49 | Nc1nc2c(ncn2[C@@H]2O[C@@H]3COP(=O)(S)N[C@H]4[C@@H](O)[C@H](n5cnc6c(=O)[nH]c(N)nc65)O[C@@H]4COP(=O)(O)N[C@H]3[C@H]2O)c(=O)[nH]1 (single isomer, unassigned) [Compound 76-0A1] |  | 1 to 10 | 
6 | 10 to 49 |  | Nc1nc2c(ncn2[C@@H]2O[C@@H]3COP(=O)(S)N[C@H]4[C@@H](O)[C@H](n5cnc6c(=O)[nH]c(N)nc65)O[C@@H]4COP(=O)(S)N[C@H]3[C@H]2O)c(=O)[nH]1 (single isomer, unassigned) [Compound 76-0A2] | 10 to 49 |  | 
7 | 1 to 10 |  | Nc1nc2c(ncn2[C@@H]2O[C@@H]3COP(=O)(S)N[C@H]4[C@@H](O)[C@H](n5cnc6c(=O)[nH]c(N)nc65)O[C@@H]4COP(=O)(S)N[C@H]3[C@H]2O)c(=O)[nH]1 (single isomer, unassigned) [Compound 76-0A3] | < 1 |  | 
8 | 10 to 49 |  | Nc1nc2c(ncn2[C@@H]2O[C@@H]3COP(=O)(S)N[C@H]4[C@@H](O)[C@H](n5cnc6c(=O)[nH]c(N)nc65)O[C@@H]4COP(=O)(S)N[C@H]3[C@H]2O)c(=O)[nH]1 (single isomer, unassigned) [Compound 76-0B1] | 50 to 100 |  | 
9 |  | 10 to 49 | Nc1ncnc2c1ncn2[C@@H]1O[C@@H]2COP(=O)(O)N[C@H]3[C@@H](O)[C@H](n4cnc5c(N)ncnc54)O[C@@H]3COP(=O)(O)N[C@H]2[C@H]1O [Compound 73, Diammonium (1S,6S,8R,9R,10S,15S,17R,18R)-8,17-bis(6-amino-9H-purin-9-yl)-9,18-dihydroxy-3,12-dioxo-4,7,13,16-tetraoxa-2,11-diaza-3λ^s,12λ^s-diphosphatricyclo[13.3.0.0^6,10]octadecane-3,12-bis(olate)] |  | 1 to 10 | 
10 |  | 10 to 49 | Nc1nc2c(ncn2[C@@H]2O[C@@H]3COP(=O)(O)N[C@H]4[C@@H](O)[C@H](n5cnc6c(=O)[nH]c(N)nc65)O[C@@H]4COP(=O)(O)N[C@H]3[C@H]2O)c(=O)[nH]1 [Compound 75, Diammonium (1S,6S,8R,9R,10S,15S,17R,18R)-8,17-bis(2-amino-6-oxo-6,9-dihydro-1H-purin-9-yl)-9,18-dihydroxy-3,12-dioxo-4,7,13,16-tetraoxa-2,11-diaza-3λ^s,12λ^s-diphosphatricyclo[13.3.0.0^6,10]octadecane-3,12-bis(olate)] |  | 10 to 49 | 
11 |  |  | Nc1ncnc2c1ncn2[C@@H]1O[C@@H]2CNP(=O)(S)O[C@H]3[C@@H](F)[C@H](n4cnc5c(N)ncnc54)O[C@@H]3CNP(=O)(S)O[C@H]2[C@H]1F (stereo partly drawn) [Compound 77, Diammonium [(1R,6R,8R,9R,10R,15R,17R,18R)-8,17-bis(6-amino-9H-purin-9-yl)-9,18-difluoro-3,12-dioxo-12-sulfanidyl-2,7,11,16-tetraoxa-4,13-diaza-3λ^s,12λ^s-diphosphatricyclo[13.3.0.0^6,10]octadecan-3-yl]sulfanide] |  |  | EC50 ([1]; Homo sapiens): 50 to 100 µM; EC50 ([2]; Homo sapiens): 50 to 100 µM
12 |  | 50 to 100 | Nc1ncnc2c1ncn2[C@@H]1O[C@@H]2COP(=O)(O)N[C@H]3[C@@H](F)[C@H](n4cnc5c(N)ncnc54)O[C@@H]3COP(=O)(O)N[C@H]2[C@H]1F [Compound 78, Diammonium (1R,6S,8R,9R,10R,15S,17R,18R)-8,17-bis(6-amino-9H-purin-9-yl)-9,18-difluoro-3,12-dioxo-4,7,13,16-tetraoxa-2,11-diaza-3λ^s,12λ^s-diphosphatricyclo[13.3.0.0^6,10]octadecane-3,12-bis(olate)] |  | 50 to 100 | 

Row | Molecule | EC50 [2] [µM] | EC50 ([2]; Homo sapiens, THP1-Dual) [µM] | EC50 [1] [µM] | EC50 ([1]; Homo sapiens, THP1-Dual) [µM] | also measured
13 | Diammonium [(1S,6S,8R,9R,10S,15S,17R,18R)-8-(2-amino-6-oxo-6,9-dihydro-1H-purin-9-yl)-17-(6-amino-9H-purin-9-yl)-9,18-dihydroxy-3,12-dioxo-12-sulfanidyl-4,7,13,16-tetraoxa-2,11-diaza-3λ^s,12λ^s-diphosphatricyclo[13.3.0.0^6,10]octadecan-3-yl]sulfanide [Compound 72-0A2] | 1 to 10 |  | 1 to 10 |  | 
14 | Diammonium [(1S,6S,8R,9R,10S,15S,17R,18R)-8-(2-amino-6-oxo-6,9-dihydro-1H-purin-9-yl)-17-(6-amino-9H-purin-9-yl)-9,18-dihydroxy-3,12-dioxo-12-sulfanidyl-4,7,13,16-tetraoxa-2,11-diaza-3λ^s,12λ^s-diphosphatricyclo[13.3.0.0^6,10]octadecan-3-yl]sulfanide [Compound 72-0A3] | 1 to 10 |  | < 1 |  | 
15 | Diammonium [(1S,6S,8R,9R,10S,15S,17R,18R)-8-(2-amino-6-oxo-6,9-dihydro-1H-purin-9-yl)-17-(6-amino-9H-purin-9-yl)-9,18-dihydroxy-3,12-dioxo-12-sulfanidyl-4,7,13,16-tetraoxa-2,11-diaza-3λ^s,12λ^s-diphosphatricyclo[13.3.0.0^6,10]octadecan-3-yl]sulfanide [Compound 72-0B1] | 1 to 10 |  | 50 to 100 |  | 
16 | Diammonium [(1S,6S,8R,9R,10S,15S,17R,18R)-8-(2-amino-6-oxo-6,9-dihydro-1H-purin-9-yl)-17-(6-amino-9H-purin-9-yl)-9,18-dihydroxy-3,12-dioxo-12-sulfanidyl-4,7,13,16-tetraoxa-2,11-diaza-3λ^s,12λ^s-diphosphatricyclo[13.3.0.0^6,10]octadecan-3-yl]sulfanide [Compound 72-0B2] | 10 to 49 |  | 10 to 49 |  | 
